Values quoted from earlier work as cited in patent US9856441B2, “Soap bar” (COLGATE-PALMOLIVE COMPANY, priority 2013, dated 2018).

## NCCS(=O)(=O)O [taurine, 2-aminoethanesulfonic acid]
Room temperature
  maximum solubility of taurine in water: about 6 weight %
Taurine not in salt form
  solubility of taurine itself: up to 6%
